Read-outs that look alike come from different tables or passages of the source.
Biological target: T1, LRRK2(G2019S mutation, GST-LRRK2(amino acids 970-2527)) (Homo sapiens, UniProt Q5S007, G2019S)
T1 construct: GST-LRRK2(amino acids 970-2527); GST (N); purchased Life Technologies Corporation
Assay: LRRK2 Km ATP LanthaScreen Assay
Format: biochemical
Conditions: read-out: LRRK2 IC50
Protocol: Unless otherwise noted, all LRRK2 IC50 data presented in tables refers to the LRRK2 Km ATP LanthaScreen™ Assay that is described in the Biological Assay section.
The data presented for the 5 mM and Km ATP LanthaScreen™ Assay represents mean IC50 values based on several test results and may have reasonable. deviations depending on the specific conditions and reagents used. Reagents for the LRRK2 5 mM and Km ATP LanthaScreen™ Assay were purchased from Life Technologies Corporation.
Results are analysed using Assay Data Analyzer.

[1] = Km ATP LanthaScreen, mean IC50 of several tests
[2] = Km ATP LanthaScreen Assay, LRRK2 G2019S, mean IC50 values

T1 sequence (Q5S007 970-2527 G2019S): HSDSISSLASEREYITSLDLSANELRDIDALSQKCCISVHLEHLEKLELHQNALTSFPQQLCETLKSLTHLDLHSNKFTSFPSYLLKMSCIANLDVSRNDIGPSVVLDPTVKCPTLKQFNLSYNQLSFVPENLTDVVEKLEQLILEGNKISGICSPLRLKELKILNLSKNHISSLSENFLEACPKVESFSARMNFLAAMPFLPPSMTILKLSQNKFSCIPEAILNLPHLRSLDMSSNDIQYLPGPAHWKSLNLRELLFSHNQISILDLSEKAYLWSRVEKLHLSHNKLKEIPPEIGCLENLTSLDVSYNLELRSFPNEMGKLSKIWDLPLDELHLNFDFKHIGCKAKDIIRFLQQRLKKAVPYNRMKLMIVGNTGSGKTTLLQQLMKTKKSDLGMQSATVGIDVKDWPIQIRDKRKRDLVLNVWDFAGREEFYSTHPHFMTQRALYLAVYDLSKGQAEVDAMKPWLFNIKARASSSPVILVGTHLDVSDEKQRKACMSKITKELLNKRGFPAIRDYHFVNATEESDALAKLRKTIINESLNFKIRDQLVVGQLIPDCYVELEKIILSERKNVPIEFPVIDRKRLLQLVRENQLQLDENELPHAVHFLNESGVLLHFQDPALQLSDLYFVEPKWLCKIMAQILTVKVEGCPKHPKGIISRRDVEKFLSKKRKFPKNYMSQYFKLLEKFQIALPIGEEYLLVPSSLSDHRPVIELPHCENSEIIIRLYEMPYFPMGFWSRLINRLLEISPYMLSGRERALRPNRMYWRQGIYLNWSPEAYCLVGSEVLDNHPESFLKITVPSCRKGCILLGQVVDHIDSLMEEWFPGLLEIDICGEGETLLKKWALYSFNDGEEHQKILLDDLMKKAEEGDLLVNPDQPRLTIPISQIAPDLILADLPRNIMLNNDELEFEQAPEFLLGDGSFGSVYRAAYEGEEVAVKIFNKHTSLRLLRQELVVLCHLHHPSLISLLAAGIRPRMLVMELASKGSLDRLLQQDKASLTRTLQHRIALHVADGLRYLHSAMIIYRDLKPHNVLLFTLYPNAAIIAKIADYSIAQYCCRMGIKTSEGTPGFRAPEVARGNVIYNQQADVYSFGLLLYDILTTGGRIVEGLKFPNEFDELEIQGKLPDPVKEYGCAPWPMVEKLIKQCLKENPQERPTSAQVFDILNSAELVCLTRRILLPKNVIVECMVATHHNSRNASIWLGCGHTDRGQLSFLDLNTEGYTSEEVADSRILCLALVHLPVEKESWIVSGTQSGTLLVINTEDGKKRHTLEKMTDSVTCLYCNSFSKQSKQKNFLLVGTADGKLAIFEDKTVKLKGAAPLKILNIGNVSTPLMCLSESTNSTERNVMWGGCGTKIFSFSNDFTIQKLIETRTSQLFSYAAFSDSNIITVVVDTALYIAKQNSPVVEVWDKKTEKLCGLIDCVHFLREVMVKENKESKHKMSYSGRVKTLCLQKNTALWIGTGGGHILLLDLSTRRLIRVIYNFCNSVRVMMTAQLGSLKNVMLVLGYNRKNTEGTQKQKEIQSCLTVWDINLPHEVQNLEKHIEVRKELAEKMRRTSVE

SMILES	IC50 [1] [nM]	IC50 [2] [nM]
COc1ccc(-c2ccc3[nH]nc(-c4ccnc(N5CCOCC5)c4)c3c2)cn1 [Ex 329]	14	–
COc1ncnc(C)c1-c1ccc2[nH]nc(-c3ccnc(N4CCOCC4)c3)c2c1 [Ex 331]	59	–
Cn1cnnc1-c1ccc2[nH]nc(-c3ccnc(N4CCOCC4)c3)c2c1 [Ex 341]	1.4	–
Cc1nnc(-c2ccc3[nH]nc(-c4ccnc(N5CCOCC5)c4)c3c2)o1 [Ex 342]	0.61	–
Cn1cc(-c2cc3c(-c4ccnc(N5CCOCC5)c4)n[nH]c3cc2F)cn1 [Ex 352]	12	–
Cn1cc(-c2cc3c(-c4ccnc(N5CC(F)C5)c4)n[nH]c3cc2F)cn1 [Ex 353]	4.6	–
CCOc1nccnc1-c1ccc2[nH]nc(-c3ccnc(N4CCOCC4)c3)c2c1 [Ex 390]	1.6	–
c1ccc2c(-c3ccnc(N4CCOCC4)c3)n[nH]c2c1 [Example 1]	16	–
c1ccc2c(-c3ccnc(N4CCCCCC4)c3)n[nH]c2c1 [Example 2]	–	76
COCCN(C)c1cc(-c2n[nH]c3ccccc23)ccn1 [Example 3]	–	48
COCCNc1cc(-c2n[nH]c3ccccc23)ccn1 [Example 4]	–	46
c1ccc2c(-c3ccnc(N4CCCC4)c3)n[nH]c2c1 [Example 5]	–	17
c1ccc2c(-c3ccnc(N4CCCCC4)c3)n[nH]c2c1 [Example 6]	–	16
c1ccc2c(c1)CN(c1cc(-c3n[nH]c4ccccc34)ccn1)C2 [Example 7]	–	87
CN1CCN(c2cc(-c3n[nH]c4ccccc34)ccn2)CC1 [Example 8]	–	42
OCCNc1cc(-c2n[nH]c3ccccc23)ccn1 [Example 9]	–	54
OC1CCN(c2cc(-c3n[nH]c4ccccc34)ccn2)CC1 [Example 10]	–	24
c1ccc(N2CCN(c3cc(-c4n[nH]c5ccccc45)ccn3)CC2)cc1 [Example 11]	–	49
c1ccc2c(-c3ccnc(N4CCSCC4)c3)n[nH]c2c1 [Example 12]	–	46
c1ccc(N2CCN(c3cc(-c4n[nH]c5ccccc45)ccn3)CC2)nc1 [Example 13]	–	22
N#CC1(c2ccccc2)CCN(c2cc(-c3n[nH]c4ccccc34)ccn2)CC1 [Example 14]	–	67
c1ccc2c(-c3ccnc(N4CCC5(CC4)OCCO5)c3)n[nH]c2c1 [Example 15, 8-[4-(1H-indazol-3-yl)pyridin-2-yl]-1,4-dioxa-8-azaspiro[4.5]decane]	–	36

SMILES	IC50 [1] [nM]	IC50 [2] [nM]
c1ccc2c(-c3ccnc(N4CCC(c5ccncc5)CC4)c3)n[nH]c2c1 [Example 16]	–	186
N#CC1(c2ccccn2)CCN(c2cc(-c3n[nH]c4ccccc34)ccn2)CC1 [Example 17]	–	16
CS(=O)(=O)N1CCN(c2cc(-c3n[nH]c4ccccc34)ccn2)CC1 [Example 18]	–	17
c1ccc2c(-c3ccnc(N4CCN(Cc5ccncc5)CC4)c3)n[nH]c2c1 [Example 19]	–	18
C1=CC(c2noc(C3CCN(c4cc(-c5n[nH]c6ccccc56)ccn4)CC3)n2)=CCC1 [Example 20]	–	27
FC1CCCN(c2cc(-c3n[nH]c4ccccc34)ccn2)C1 (stereo not shown) [Example 21]	–	22
c1ccc(C2CCN(c3cc(-c4n[nH]c5ccccc45)ccn3)CC2)nc1 [Example 22]	–	20
OC1(c2ccccn2)CCN(c2cc(-c3n[nH]c4ccccc34)ccn2)CC1 [Example 23]	–	20
c1cncc(N2CCN(c3cc(-c4n[nH]c5ccccc45)ccn3)CC2)c1 [Example 24]	–	18
OC1(c2ccncc2)CCN(c2cc(-c3n[nH]c4ccccc34)ccn2)CC1 [Example 25]	–	21
OC1(c2cccnc2)CCN(c2cc(-c3n[nH]c4ccccc34)ccn2)CC1 [Example 26]	–	19
c1ccc2c(-c3ccnc(N4CCC(N5CCOCC5)CC4)c3)n[nH]c2c1 [Example 27]	–	32
FC1(F)CCN(c2cc(-c3n[nH]c4ccccc34)ccn2)CC1 [Example 28]	–	57
c1ccc2c(-c3ccnc(N4CCC(N5CCCC5)CC4)c3)n[nH]c2c1 [Example 29]	–	45
CN(C)c1cc(-c2n[nH]c3ccccc23)ccn1 [Example 30]	–	33
CC1CN(c2cc(-c3n[nH]c4ccccc34)ccn2)CC(C)O1 (stereo not shown) [Example 31]	–	12
CN1CCCC(CN(C)c2cc(-c3n[nH]c4ccccc34)ccn2)C1 (stereo not shown) [Example 32]	–	75
c1ccc2c(-c3ccnc(NC4COC4)c3)n[nH]c2c1 [Example 33]	–	3510
CN1CCC2(CCN(c3cc(-c4n[nH]c5ccccc45)ccn3)C2)C1 (stereo not shown) [Example 34]	–	22
CN(C)[C@@H]1CCN(c2cc(-c3n[nH]c4ccccc34)ccn2)C1 [Example 35]	–	28
OCC1CN(c2cc(-c3n[nH]c4ccccc34)ccn2)CCCO1 (stereo not shown) [Example 37]	–	64
F[C@H]1COC[C@@H]1Nc1cc(-c2n[nH]c3ccccc23)ccn1 [Example 38]	–	79

SMILES	IC50 [1] [nM]	IC50 [2] [nM]
c1ccc2c(-c3ccnc(N4CCC(CN5CCOCC5)CC4)c3)n[nH]c2c1 [Example 40]	–	28
O=C(O)[C@H]1CCCN(c2cc(-c3n[nH]c4ccccc34)ccn2)C1 [Example 41]	–	24
c1ccc2c(-c3ccnc(NCCCn4ccnc4)c3)n[nH]c2c1 [Example 42]	–	31
CN(C)CC1CN(c2cc(-c3n[nH]c4ccccc34)ccn2)CCO1 (stereo not shown) [Example 43]	–	19
O=C1CCC(CNc2cc(-c3n[nH]c4ccccc34)ccn2)N1 (stereo not shown) [Example 44]	–	26
CN(C)CCC(Nc1cc(-c2n[nH]c3ccccc23)ccn1)c1ccccn1 (stereo not shown) [Example 45]	–	72
CN1CCN(c2cc(-c3n[nH]c4ccccc34)ccn2)CC1=O [Example 46]	–	21
CN1CCC(O)(CNc2cc(-c3n[nH]c4ccccc34)ccn2)CC1 [Example 47]	–	63
O=C1CN(c2cc(-c3n[nH]c4ccccc34)ccn2)CCCN1 [Example 48]	–	54
O=C1CN(c2cc(-c3n[nH]c4ccccc34)ccn2)CCN1 [Example 49]	–	23
CN1CCC(CN(C)c2cc(-c3n[nH]c4ccccc34)ccn2)CC1 [Example 50]	–	40
C[C@@H]1C[C@@H](O)CN1c1cc(-c2n[nH]c3ccccc23)ccn1 [Example 51]	–	33
O=C(O)[C@@H]1CCCN(c2cc(-c3n[nH]c4ccccc34)ccn2)C1 [Example 52]	–	31
c1ccc2c(-c3ccnc(N4CCN(CCCN5CCOCC5)CC4)c3)n[nH]c2c1 [Example 53]	–	18
CN1CCC(CNc2cc(-c3n[nH]c4ccccc34)ccn2)C1 (stereo not shown) [Example 54]	–	47
CN1CC=C2CN(c3cc(-c4n[nH]c5ccccc45)ccn3)CC21 (stereo not shown) [Example 55]	–	14
CN(C)CC1(O)CCN(c2cc(-c3n[nH]c4ccccc34)ccn2)CC1 [Example 56]	–	25
O=C(CN1CCN(c2cc(-c3n[nH]c4ccccc34)ccn2)CC1)N1CCOCC1 [Example 57]	–	6.1
OCCOCCNc1cc(-c2n[nH]c3ccccc23)ccn1 [Example 58]	–	51
c1ccc2c(-c3ccnc(N4Cc5cncnc5C4)c3)n[nH]c2c1 [Example 59]	–	37
CC1=NC2(CCCN(c3cc(-c4n[nH]c5ccccc45)ccn3)C2)C(=O)N1 (stereo not shown) [Example 60]	–	202
O=C1CCCC2(CCN(c3cc(-c4n[nH]c5ccccc45)ccn3)CC2)N1 [Example 61]	–	14

SMILES	IC50 [1] [nM]	IC50 [2] [nM]
FC1CCN(CCCNc2cc(-c3n[nH]c4ccccc34)ccn2)C1 (stereo not shown) [Example 62]	–	46
c1ccc2c(-c3ccnc(N4CCC5OCCC54)c3)n[nH]c2c1 (stereo not shown) [Example 63]	–	40
c1ccc2c(-c3ccnc(NCCn4ccnc4)c3)n[nH]c2c1 [Example 64]	–	35
CN(C)C(=O)CN1CCN(c2cc(-c3n[nH]c4ccccc34)ccn2)CC1 [Example 65]	–	6.8
OCCC1CN(c2cc(-c3n[nH]c4ccccc34)ccn2)CCO1 (stereo not shown) [Example 66]	–	15
COC1CN(c2cc(-c3n[nH]c4ccccc34)ccn2)C1 [Example 67]	–	31
CN1CCC(Nc2cc(-c3n[nH]c4ccccc34)ccn2)C1=O (stereo not shown) [Example 68]	–	108
CN(CC1CCC(=O)N1)c1cc(-c2n[nH]c3ccccc23)ccn1 (stereo not shown) [Example 69]	–	75
NC(=O)C1CCCN(c2cc(-c3n[nH]c4ccccc34)ccn2)C1 (stereo not shown) [Example 71]	–	16
O=C1CCN(c2cc(-c3n[nH]c4ccccc34)ccn2)CCN1 [Example 72]	–	57
c1ccc2c(-c3ccnc(NCCN4CCOCC4)c3)n[nH]c2c1 [Example 73]	–	35
c1ccc2c(-c3ccnc(NC4CCCOC4)c3)n[nH]c2c1 (stereo not shown) [Example 74]	–	57
c1ccc2c(-c3ccnc(N4CCNCC4)c3)n[nH]c2c1 [Example 75]	80	–
O=C1CCN(c2cc(-c3n[nH]c4ccccc34)ccn2)CC1 [Example 76]	45	–
Brc1ccc2[nH]nc(-c3ccnc(N4CCOCC4)c3)c2c1 [Example 77]	11	–
Oc1ccc2[nH]nc(-c3ccnc(N4CCOCC4)c3)c2c1 [Example 78]	5.3	–
COc1ccc2[nH]nc(-c3ccnc(N4CCOCC4)c3)c2c1 [Example 79]	7.4	–
CCN(CC)CCOc1ccc2[nH]nc(-c3ccnc(N4CCOCC4)c3)c2c1 [Example 80]	–	37
FC(F)=CCCOc1ccc2[nH]nc(-c3ccnc(N4CCOCC4)c3)c2c1 [Example 81]	–	4.8
c1cc(-c2n[nH]c3ccc(OCCN4CCOCC4)cc23)cc(N2CCOCC2)n1 [Example 82]	–	4.7
c1cc(-c2n[nH]c3ccc(OCC4CCCO4)cc23)cc(N2CCOCC2)n1 (stereo not shown) [Example 83]	–	5.4
CC(C)COc1ccc2[nH]nc(-c3ccnc(N4CCOCC4)c3)c2c1 [Example 84]	–	5.9
